Where two headings read alike, the source gives them in different places. Positions of bridges follow the written chain, without caps; N, C: chain ends. No end group written: not given here.
How the values were obtained:
Assay type in all cases: biochemical
TF.cndot.FVIIa = target: T1, TF.cndot.FVIIa (Homo sapiens, UniProt P08709); assay: TF·FVIIa enzyme inhibition assay, apparent equilibrium dissociation constant (Ki*)
T1 construct: is generated by proteolysis of a single peptide bond from its zymogen Factor VII (FVII); purchased Haematologic Technologies Inc. (Essex Jct., Vt.); host or cells: TF1-243 made in house in E. coli
T1 sequence (P08709 213-466 limits assumed): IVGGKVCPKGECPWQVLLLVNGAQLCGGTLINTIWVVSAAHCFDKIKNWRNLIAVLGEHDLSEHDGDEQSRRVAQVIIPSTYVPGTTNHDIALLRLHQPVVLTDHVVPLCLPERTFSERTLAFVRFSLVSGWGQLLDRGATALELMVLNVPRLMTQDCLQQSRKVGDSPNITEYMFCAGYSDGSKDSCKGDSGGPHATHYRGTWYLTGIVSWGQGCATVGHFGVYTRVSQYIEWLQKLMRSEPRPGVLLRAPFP
T1 sequence (P08709 61-212 limits assumed): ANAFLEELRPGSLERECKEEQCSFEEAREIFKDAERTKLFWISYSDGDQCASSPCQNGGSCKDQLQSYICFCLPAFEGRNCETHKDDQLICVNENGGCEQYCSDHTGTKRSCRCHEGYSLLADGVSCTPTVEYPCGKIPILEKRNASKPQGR
T1 sequence (P13726 33-275 partner limits assumed): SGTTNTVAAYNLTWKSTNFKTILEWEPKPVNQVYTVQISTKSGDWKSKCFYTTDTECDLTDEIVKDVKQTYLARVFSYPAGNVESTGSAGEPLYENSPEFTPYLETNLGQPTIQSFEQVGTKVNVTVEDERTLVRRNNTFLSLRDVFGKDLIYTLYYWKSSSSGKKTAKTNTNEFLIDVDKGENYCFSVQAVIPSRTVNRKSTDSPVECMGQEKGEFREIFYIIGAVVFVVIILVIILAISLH
Method: Aliquots (25 μL) from each well of a microtiter plate containing the serially diluted inhibitors were transferred into new microtiter plates, each containing a different protease (100 μL) in the appropriate buffer. The proteases tested (protease concentration, buffer, substrate) were FVIIa (10 nM, Buffer A, 0.7 mM S2366), FXIa (1.0 nM, Buffer B containing 1 mg/ml BSA, 0.7 mM S2366), plasma kallikrein (3.5 nM, Buffer B, 0.5 mM S2302), and plasmin (15 nM, Buffer B, 1 mM S2251).

[1] = tested on: normal human plasma, clotting initiated by TF membranes; assay: tissue factor initiated prothrombin time (PT) assay
Method: FIG. 6. Prolongation of clotting time in the PT assay in normal human plasma. […] The uninhibited clotting time was 48 sec.
Clotting times were performed using the ACL 300 Research Coagulation Analyzer. For the prothrombin time (PT) assays, the incubation time was set at 120 sec and acquisition time at 120 to 600 sec depending on the expected outcome of the assay. Membranes from 293 cells expressing full length TF (Paborsky, L. R. et al., Biochemistry 28: 8072-8077 [1989]) were premixed with CaCl2. The sample (plasma and inhibitor) and reagent (CaCl2 /TF) were automatically mixed together after a 2 min incubation at 37° C. The clotting time was determined by optical assessment. The total incubation time of inhibitor with plasma before addition of CaCl2 /TF was ca. 5 min. Final concentrations were 2 to 20 μM inhibitor, 3.7 nM TF (0.9 μg/ml by protein content), 22.5 mM CaCl2, and 50% plasma in a total volume of 160 μL.

[2] = tested on: normal human plasma, clotting initiated by ellagic acid; assay: activated partial thromboplastin time (APTT) assay; details: ca. 7 μM inhibitor
Method: FIG. 7. Prolongation of clotting time in the APTT assay in normal human plasma. […] The uninhibited clotting time was 31 sec.
For the activated partial thromboplastin time (APTT) assays, the activation time was set at 120 sec and acquisition time at 300 to 600 sec depending on the expected outcome of the assay. Citrated normal human plasma and inhibitor were incubated together. The sample (plasma and inhibitor) and activator (Instrumentation Laboratories Ellagic acid/Phospholipid mix Test Reagent) were automatically pipetted and incubated together for 2 min at 37° C., then CaCl2 was added and clotting time determined by means of optical assessment. The total incubation time of inhibitor with plasma was ca. 3 min before addition of activator, and 5 min before addition of CaCl2.

FXa = target: T2, FXa (Homo sapiens, UniProt P00742); assay: FXa enzyme inhibition assay (Ki*)
T2 construct: purchased Haematologic Technologies Inc. (Essex Jct., Vt.)
T2 sequence (P00742 235-488 limits assumed): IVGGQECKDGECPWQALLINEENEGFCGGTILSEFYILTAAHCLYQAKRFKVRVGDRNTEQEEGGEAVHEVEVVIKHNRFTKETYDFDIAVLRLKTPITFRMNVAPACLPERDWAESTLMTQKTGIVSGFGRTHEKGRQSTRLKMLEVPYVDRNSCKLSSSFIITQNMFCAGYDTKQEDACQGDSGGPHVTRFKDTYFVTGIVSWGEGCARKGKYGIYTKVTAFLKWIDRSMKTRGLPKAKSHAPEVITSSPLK
T2 sequence (P00742 41-179 limits assumed): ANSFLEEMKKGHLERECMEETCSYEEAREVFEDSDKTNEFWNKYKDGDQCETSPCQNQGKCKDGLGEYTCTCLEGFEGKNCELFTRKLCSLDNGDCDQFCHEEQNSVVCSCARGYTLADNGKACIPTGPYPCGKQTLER
Method: (§1) To aliquots of serial diluted inhibitor, either activated protein C, thrombin, FXa, FXIa, FXIIa, plasma kallikrein or plasmin were added. After incubation and addition of the appropriate substrate, plots of fractional activity versus inhibitor concentration were generated as described in Example 3.
(§2) After incubation of the substrate/inhibitor mixes at room temperature for 1-3 h, the appropriate substrate (20 μL) was added, and the absorbance at 405 nm was monitored. Controls lacking inhibitor and enzyme were assayed to measure the uninhibited and substrate hydrolysis rates, respectively. Plots of the fractional rate versus inhibitor concentration were fit by nonlinear regression analysis to equation 1 and apparent equilibrium dissociation constants (Ki *) were determined. […] The concentrations of activated protein C, thrombin and plasmin were based upon those of the supplier.

thrombin = thrombin (Homo sapiens, UniProt P00734); assay: thrombin enzyme inhibition assay (Ki*)
Method: as §1, §2

FXIIa = target: T3, FXIIa (Homo sapiens, UniProt P00748); assay: FXIIa enzyme inhibition assay (Ki*)
T3 construct: purchased Enzyme Research Laboratories, Inc. (South Bend, Ind.)
T3 sequence (P00748 373-615 limits assumed): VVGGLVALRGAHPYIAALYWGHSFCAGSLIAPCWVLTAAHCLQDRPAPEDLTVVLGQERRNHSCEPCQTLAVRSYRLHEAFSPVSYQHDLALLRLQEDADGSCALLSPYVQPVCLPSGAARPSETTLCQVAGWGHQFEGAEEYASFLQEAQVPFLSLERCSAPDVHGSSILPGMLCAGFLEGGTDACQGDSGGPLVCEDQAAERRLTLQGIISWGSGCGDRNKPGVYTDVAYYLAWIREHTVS
T3 sequence (P00748 20-372 limits assumed): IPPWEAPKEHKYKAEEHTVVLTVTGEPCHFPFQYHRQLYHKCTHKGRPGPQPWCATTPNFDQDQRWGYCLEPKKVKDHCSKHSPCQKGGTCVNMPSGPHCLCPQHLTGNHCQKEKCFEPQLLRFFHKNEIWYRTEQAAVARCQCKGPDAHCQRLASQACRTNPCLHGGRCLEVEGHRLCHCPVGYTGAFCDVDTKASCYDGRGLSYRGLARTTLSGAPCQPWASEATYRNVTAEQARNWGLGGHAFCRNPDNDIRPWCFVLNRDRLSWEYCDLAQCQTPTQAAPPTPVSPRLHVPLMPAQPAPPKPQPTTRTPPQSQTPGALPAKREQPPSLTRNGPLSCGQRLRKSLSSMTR
Method: as §1, §2

activated protein C = target: T4, activated protein C (Homo sapiens, UniProt P04070); assay: activated protein C enzyme inhibition assay (Ki*)
T4 construct: purchased Haematologic Technologies Inc. (Essex Jct., Vt.)
T4 sequence (P04070 212-450 limits assumed): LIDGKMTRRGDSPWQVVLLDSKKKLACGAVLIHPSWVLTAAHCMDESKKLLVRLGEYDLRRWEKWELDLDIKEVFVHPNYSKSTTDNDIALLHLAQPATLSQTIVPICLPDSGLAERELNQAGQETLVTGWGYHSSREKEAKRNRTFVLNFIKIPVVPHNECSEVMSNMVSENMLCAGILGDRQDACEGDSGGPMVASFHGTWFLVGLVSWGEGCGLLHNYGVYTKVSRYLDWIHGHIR
T4 sequence (P04070 43-197 limits assumed): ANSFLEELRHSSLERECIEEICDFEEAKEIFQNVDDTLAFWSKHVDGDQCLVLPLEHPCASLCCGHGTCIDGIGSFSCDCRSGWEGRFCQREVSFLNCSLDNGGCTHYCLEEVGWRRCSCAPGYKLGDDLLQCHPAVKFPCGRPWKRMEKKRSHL
Method: as §1, §2

[3] = equilibrium conditions, read-out: apparent Ki* with TF.cndot.FVIIa (FIG. 4)

## first Kunitz domain of TFPI: first Kunitz domain (residues 22-79) of human tissue factor pathway inhibitor (MHSFCAFKADDGPCKAIMKRFFFNIFTRQCEEFIYGGCEGNQNRFESLEECKKMCTRD)
TF.cndot.FVIIa; [3]
  Ki: ~600 nM

## TF7I-C: APPI Kunitz domain variant (SEQ ID NO: 33) with Thr11Pro, Met17Leu, Ser19Leu and Gly39Tyr compared to wild type APPI
[1]; 10 μM inhibitor, clotting initiated by TF membranes
  prolongation of clotting time in PT assay: ~3 fold
[1]; ca. 20 μM inhibitor
  prolongation of clotting time in PT assay: 4 fold
[2]
  prolongation of clotting time in APTT assay: greater than 10 fold

## VREVCSEQAETGPCRAMISRWYFDVTEGKCAPFFYGGCGGNRNNFDTEEYCMAVCGSA (disulfide 5-55, 14-38, 30-51) [APPI]
TF.cndot.FVIIa; FVIIa 10 nM, TF1-243 50 nM, nonlinear regression, equation 1, read-out: Ki* with TF.cndot.FVIIa (FIG. 5, representative determination)
  Ki: 300 nM
TF.cndot.FVIIa; [3]
  Ki: 301 ± 44 nM
FXa
  Ki: > 10000 nM
thrombin
  Ki: > 10000 nM
FXIIa
  Ki: > 10000 nM
Activated protein C
  Ki: > 10000 nM

— patent publication US5795954A, “Factor VIIa inhibitors from Kunitz domain proteins” (Genentech, Inc., priority 1994, dated 1998)
